Reference: PubChem BioAssay (NCI)
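Here, GI50 denotes the concentration required for 50% inhibition of growth. TGI denotes the concentration required for complete inhibition of growth.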

Legend:
Test in all cases: inhibition of tumour cell growth, NCI panel, 384-well format
[1] = system: U251 glioblastoma
[2] = system: BT-549 breast
[3] = system: HCT-116 colon
[4] = system: UO-31 renal
[5] = system: 786-0 renal
[6] = system: MDA-MB-231 breast
[7] = system: RPMI-8226 leukemia
[8] = system: NCI-H522 lung
[9] = system: OVCAR-5 ovarian
[10] = system: NCI-H23 lung
[11] = system: SF-295 CNS
[12] = system: HCT-15 colon
[13] = system: SN12C renal
[14] = system: MOLT-4 leukemia
[15] = system: SK-MEL-5 melanoma
[16] = system: NCI/ADR-RES ovarian
[17] = system: DU-145 prostate
[18] = system: A549 NSCLC
[19] = system: IGROV1 ovarian
[20] = system: PC-3 prostate
[21] = system: K-562 leukemia
[22] = system: T-47D breast
[23] = system: SK-OV-3 ovarian
[24] = system: MCF7 breast
[25] = system: HL-60(TB) leukemia
[26] = system: SF-268 CNS
[27] = system: OVCAR-8 ovarian
[28] = system: NCI-H226 lung
[29] = system: NCI-H322M lung
[30] = system: M14 melanoma
[31] = system: A498 renal
[32] = system: NCI-H460 NSCLC
[33] = system: HT29 colon
[34] = system: UACC-257 melanoma
[35] = system: SK-MEL-28 melanoma
[36] = system: OVCAR-4 ovarian
[37] = system: RXF 393 renal
[38] = system: COLO 205 colon
[39] = system: MALME-3M melanoma
[40] = system: MDA-MB-468 breast
[41] = system: HOP-62 NSCLC
[42] = system: SR leukemia
[43] = system: SK-MEL-2 melanoma
[44] = system: LOX IMVI melanoma
[45] = system: HOP-92 NSCLC
[46] = system: SNB-19 CNS
[47] = system: UACC-62 melanoma
[48] = system: ACHN renal
[49] = system: OVCAR-3 ovarian
[50] = system: MDA-MB-435 melanoma
[51] = system: TK-10 renal
[52] = system: SF-539 CNS
[53] = system: HCC-2998 colon
[54] = system: KM12 colon
[55] = system: CAKI-1 renal
[56] = system: SW-620 colon
[57] = system: CCRF-CEM leukemia

**Q.** O=C(NS(=O)(=O)c1ccc(NC[C@H]2COCCO2)c([N+](=O)[O-])c1)c1ccc(N2CCN(CC3=C(c4ccc(Cl)cc4)CC4(CCC4)CC3)CC2)cc1Oc1cnc2[nH]ccc2c1 was tested. Which GI50 [1] did it give?
**A.** 2.34 µM

**Q.** And the TGI [1]?
**A.** 5.35 µM

**Q.** What about the GI50 [2] of the same compound?
**A.** 2.63 µM

**Q.** What about the TGI [2] of the same compound?
**A.** 5.74 µM

**Q.** And the GI50 [3]?
**A.** 2.3 µM

**Q.** What about the TGI [3] of the same compound?
**A.** 5.47 µM

**Q.** What about the GI50 [4] of the same compound?
**A.** 2.1 µM

**Q.** And the TGI [4]?
**A.** 4.75 µM

**Q.** What about the GI50 [5] of the same compound?
**A.** 2.41 µM

**Q.** What about the TGI [5] of the same compound?
**A.** 6.75 µM

**Q.** And the GI50 [6]?
**A.** 2.06 µM

**Q.** And the TGI [6]?
**A.** 4.32 µM

**Q.** And the GI50 [7]?
**A.** 1.02 µM

**Q.** What about the TGI [7] of the same compound?
**A.** 2.18 µM

**Q.** And the GI50 [8]?
**A.** 3 µM

**Q.** And the TGI [8]?
**A.** 7.32 µM

**Q.** And the GI50 [9]?
**A.** 2.15 µM

**Q.** What about the TGI [9] of the same compound?
**A.** 4.28 µM

**Q.** And the GI50 [10]?
**A.** 1.89 µM

**Q.** What about the TGI [10] of the same compound?
**A.** 4.05 µM

**Q.** And the GI50 [11]?
**A.** 1.39 µM

**Q.** What about the TGI [11] of the same compound?
**A.** 3.24 µM

**Q.** And the GI50 [12]?
**A.** 2.02 µM

**Q.** What about the TGI [12] of the same compound?
**A.** 4.07 µM

**Q.** What about the GI50 [13] of the same compound?
**A.** 2.52 µM

**Q.** What about the TGI [13] of the same compound?
**A.** 7.27 µM

**Q.** And the GI50 [14]?
**A.** 0.814 µM

**Q.** What about the TGI [14] of the same compound?
**A.** 2.08 µM

**Q.** And the GI50 [15]?
**A.** 1.81 µM

**Q.** What about the TGI [15] of the same compound?
**A.** 3.33 µM

**Q.** And the GI50 [16]?
**A.** 4.66 µM

**Q.** And the TGI [16]?
**A.** 16.7 µM

**Q.** What about the GI50 [17] of the same compound?
**A.** 2.82 µM

**Q.** And the TGI [17]?
**A.** 7.77 µM

**Q.** And the GI50 [18]?
**A.** 2.34 µM

**Q.** And the TGI [18]?
**A.** 7.54 µM

**Q.** What about the GI50 [19] of the same compound?
**A.** 1.84 µM

**Q.** What about the TGI [19] of the same compound?
**A.** 4.31 µM

**Q.** What about the GI50 [20] of the same compound?
**A.** 2.12 µM

**Q.** And the TGI [20]?
**A.** 5.15 µM

**Q.** And the GI50 [21]?
**A.** 3.32 µM

**Q.** And the TGI [21]?
**A.** 11.1 µM

**Q.** And the GI50 [22]?
**A.** 2.92 µM

**Q.** What about the TGI [22] of the same compound?
**A.** 9.74 µM

**Q.** What about the GI50 [23] of the same compound?
**A.** 2.91 µM

**Q.** And the TGI [23]?
**A.** 7.58 µM

**Q.** And the GI50 [24]?
**A.** 2.65 µM

**Q.** What about the TGI [24] of the same compound?
**A.** 8.8 µM

**Q.** What about the GI50 [25] of the same compound?
**A.** 0.0239 µM

**Q.** And the TGI [25]?
**A.** 1.24 µM

**Q.** And the GI50 [26]?
**A.** 3.32 µM

**Q.** What about the TGI [26] of the same compound?
**A.** 8.91 µM

**Q.** And the GI50 [27]?
**A.** 2.99 µM

**Q.** What about the TGI [27] of the same compound?
**A.** 9.88 µM

**Q.** And the GI50 [28]?
**A.** 1.98 µM

**Q.** And the TGI [28]?
**A.** 4.2 µM

**Q.** What about the GI50 [29] of the same compound?
**A.** 2.79 µM

**Q.** And the TGI [29]?
**A.** 6.65 µM

**Q.** What about the GI50 [30] of the same compound?
**A.** 2.1 µM

**Q.** And the TGI [30]?
**A.** 4.14 µM

**Q.** What about the GI50 [31] of the same compound?
**A.** 1.86 µM

**Q.** What about the TGI [31] of the same compound?
**A.** 5.09 µM

**Q.** What about the GI50 [32] of the same compound?
**A.** 1.65 µM

**Q.** And the TGI [32]?
**A.** 3.98 µM

**Q.** What about the GI50 [33] of the same compound?
**A.** 2.32 µM

**Q.** And the TGI [33]?
**A.** 5.17 µM

**Q.** And the GI50 [34]?
**A.** 2.17 µM

**Q.** What about the TGI [34] of the same compound?
**A.** 4.31 µM

**Q.** And the GI50 [35]?
**A.** 2.53 µM

**Q.** What about the TGI [35] of the same compound?
**A.** 5.49 µM

**Q.** What about the GI50 [36] of the same compound?
**A.** 2.64 µM

**Q.** And the TGI [36]?
**A.** 6.47 µM

**Q.** And the GI50 [37]?
**A.** 1.34 µM

**Q.** What about the TGI [37] of the same compound?
**A.** 2.94 µM

**Q.** And the GI50 [38]?
**A.** 2.26 µM

**Q.** And the TGI [38]?
**A.** 4.27 µM

**Q.** What about the GI50 [39] of the same compound?
**A.** 2.28 µM

**Q.** And the TGI [39]?
**A.** 4.37 µM

**Q.** And the GI50 [40]?
**A.** 1.83 µM

**Q.** And the TGI [40]?
**A.** 3.86 µM

**Q.** And the GI50 [41]?
**A.** 2.24 µM

**Q.** What about the TGI [41] of the same compound?
**A.** 5.19 µM

**Q.** What about the GI50 [42] of the same compound?
**A.** 1.13 µM

**Q.** What about the TGI [42] of the same compound?
**A.** 2.35 µM

**Q.** What about the GI50 [43] of the same compound?
**A.** 1.99 µM

**Q.** What about the TGI [43] of the same compound?
**A.** 3.69 µM

**Q.** What about the GI50 [44] of the same compound?
**A.** 2.8 µM

**Q.** What about the TGI [44] of the same compound?
**A.** 5.3 µM

**Q.** And the GI50 [45]?
**A.** 1.56 µM

**Q.** And the TGI [45]?
**A.** 3.1 µM

**Q.** What about the GI50 [46] of the same compound?
**A.** 3.97 µM

**Q.** What about the TGI [46] of the same compound?
**A.** 14.7 µM

**Q.** What about the GI50 [47] of the same compound?
**A.** 1.96 µM

**Q.** What about the TGI [47] of the same compound?
**A.** 3.78 µM

**Q.** What about the GI50 [48] of the same compound?
**A.** 2.37 µM

**Q.** What about the TGI [48] of the same compound?
**A.** 6.63 µM

**Q.** And the GI50 [49]?
**A.** 2 µM

**Q.** And the TGI [49]?
**A.** 3.91 µM

**Q.** And the GI50 [50]?
**A.** 2.38 µM

**Q.** What about the TGI [50] of the same compound?
**A.** 5.03 µM

**Q.** And the GI50 [51]?
**A.** 2.69 µM

**Q.** And the TGI [51]?
**A.** 8.48 µM

**Q.** And the GI50 [52]?
**A.** 1.97 µM

**Q.** What about the TGI [52] of the same compound?
**A.** 4.22 µM

**Q.** And the GI50 [53]?
**A.** 1.81 µM

**Q.** What about the TGI [53] of the same compound?
**A.** 3.37 µM

**Q.** And the GI50 [54]?
**A.** 2.51 µM

**Q.** And the TGI [54]?
**A.** 6.15 µM

**Q.** What about the GI50 [55] of the same compound?
**A.** 2.17 µM

**Q.** What about the TGI [55] of the same compound?
**A.** 5.11 µM

**Q.** And the GI50 [56]?
**A.** 3.96 µM

**Q.** What about the TGI [56] of the same compound?
**A.** 12.9 µM

**Q.** What about the GI50 [57] of the same compound?
**A.** 1.34 µM

**Q.** What about the TGI [57] of the same compound?
**A.** 2.64 µM
